Format in all cases: cell-based
One assay deals with T1, hGCGR (Homo sapiens, UniProt P47871).
T1 construct: expressed in transfected cells
As to the kind of experiment: Functional cAMP formation (HTRF) in HEK-293 clonal cells expressing hGCGR, 0.1% bovine casein, without or with 1.0% human serum albumin. The following applies: 37° C. An outline of the steps:
(§1)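 Cells were stimulated with peptide for 30 min at 37° C, then lysed in buffer carrying cAMP-d2 and anti-cAMP Eu3+-cryptate for a competitive HTRF read after at least 60 min at room temperature. The 665/620 nm ratio was converted to nM cAMP against a standard curve.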
A general note: Cyclic AMP is a second messenger, typically raised through Gs and lowered through Gi signalling.

The next assay deals with hGLP-1R (Homo sapiens, UniProt P43220). As to the kind of experiment: Functional cAMP formation (HTRF) in HEK-293 clonal cells expressing hGLP-1R, 0.1% bovine casein, without or with 1.0% human serum albumin. Also on record: expressed in transfected cells. The following applies: for Emax: percent of maximal response to GLP-1(7-36)NH2; for EC50: cAMP, 0.1% bovine casein (no human serum albumin), geometric mean. The method in brief: as §1

A further assay addresses T2, hGIPR (Homo sapiens, UniProt P48546).
T2 construct: expressed in transfected cells
T2 sequence (P48546 22-466): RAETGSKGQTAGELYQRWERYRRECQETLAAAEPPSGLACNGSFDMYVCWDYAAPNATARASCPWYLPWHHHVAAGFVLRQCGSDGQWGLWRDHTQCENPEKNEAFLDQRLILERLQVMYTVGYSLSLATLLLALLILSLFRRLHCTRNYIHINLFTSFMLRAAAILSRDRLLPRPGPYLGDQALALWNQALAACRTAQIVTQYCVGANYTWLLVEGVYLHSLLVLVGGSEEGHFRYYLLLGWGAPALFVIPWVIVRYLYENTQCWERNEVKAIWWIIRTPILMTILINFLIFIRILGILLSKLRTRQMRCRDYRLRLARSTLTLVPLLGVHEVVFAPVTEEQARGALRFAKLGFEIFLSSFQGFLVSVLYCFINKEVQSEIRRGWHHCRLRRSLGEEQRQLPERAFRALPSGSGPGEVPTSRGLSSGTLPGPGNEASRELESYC
Nature of the assay: Functional cAMP formation (HTRF) in HEK-293 clonal cells expressing hGIPR, 0.1% bovine casein, without or with 1.0% human serum albumin. Conditions: for Emax: percent of maximal response to GIP(1-42)NH2; for EC50: cAMP, 0.1% bovine casein (no human serum albumin), geometric mean. The method in brief: as §1

[1] abbreviates: hGCGR EC50, nM (SEM, n), 0.1% bovine casein and 1.0% human serum albumin, geometric mean.
The mark [2] stands for this setting: hGCGR EC50, nM (SEM, n), cAMP, 0.1% bovine casein (no human serum albumin), geometric mean.
The mark [3] stands for this setting: HEK293, read-out: hGLP-1R Emax, % ± SEM, 0.1% bovine casein and 1.0% human serum albumin, 37° C.
Setting [4] is: HEK293, read-out: hGLP-1R Emax, % ± SEM, cAMP, 37° C., 0.1% bovine casein, arithmetic mean.
Where [5] appears, read: hGLP-1R EC50, nM (SEM, n), 37° C.
The mark [6] stands for this setting: hGIPR EC50, nM (SEM, n), 37° C.

By EC50 is commonly meant the midpoint of the concentration-response curve. For orientation: Emax means the maximal effect, on the per cent scale that the assay sets.

Molecules are shown by their SMILES. Read-outs that look alike come from different tables or passages of the source. *1 amine or outer side, *2 acyl side, *3 side chain or, on linkers, in order; H or OH if unused. Where a SMILES comes first, the peptide text is derived from it. Side-chain parts run from the residue outwards. [ ]: non-standard residue; d: D form. The star is where a group is joined. Decanoyl(10-(4-HOOC-PhO)) = O=C(O)c1ccc(OCCCCCCCCCC(=O)*)cc1; αMePhe(2-F) = C[C@](N)(Cc1ccccc1F)C(=O)O; γGlu = O=C(O)[C@H](CCC(=O)[*:2])N[*:1]; C14 diacid = O=C(O)CCCCCCCCCCCCC(=O)*; αMeY = C[C@](N)(Cc1ccc(O)cc1)C(=O)O; 4Pal = N[C@@H](Cc1ccncc1)C(=O)O; αMeL = CC(C)C[C@](C)(N)C(=O)O; Orn = NCCC[C@H](N)C(=O)O; AEEA = NCCOCCOCC(=O)O; Aib = CC(C)(N)C(=O)O

T1 sequence (P47871 26-477): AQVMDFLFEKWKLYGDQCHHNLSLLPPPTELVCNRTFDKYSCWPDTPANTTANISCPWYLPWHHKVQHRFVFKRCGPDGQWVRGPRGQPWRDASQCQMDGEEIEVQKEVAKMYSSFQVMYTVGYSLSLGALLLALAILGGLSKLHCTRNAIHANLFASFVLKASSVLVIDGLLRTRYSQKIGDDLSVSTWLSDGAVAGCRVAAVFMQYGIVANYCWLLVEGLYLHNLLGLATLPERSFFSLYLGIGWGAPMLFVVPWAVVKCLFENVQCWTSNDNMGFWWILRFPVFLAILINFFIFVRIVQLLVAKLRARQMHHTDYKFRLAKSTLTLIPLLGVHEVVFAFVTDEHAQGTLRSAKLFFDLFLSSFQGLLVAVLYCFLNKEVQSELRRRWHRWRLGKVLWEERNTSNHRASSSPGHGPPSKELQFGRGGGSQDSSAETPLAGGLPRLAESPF
Chain of hGLP-1R (P43220 24-463): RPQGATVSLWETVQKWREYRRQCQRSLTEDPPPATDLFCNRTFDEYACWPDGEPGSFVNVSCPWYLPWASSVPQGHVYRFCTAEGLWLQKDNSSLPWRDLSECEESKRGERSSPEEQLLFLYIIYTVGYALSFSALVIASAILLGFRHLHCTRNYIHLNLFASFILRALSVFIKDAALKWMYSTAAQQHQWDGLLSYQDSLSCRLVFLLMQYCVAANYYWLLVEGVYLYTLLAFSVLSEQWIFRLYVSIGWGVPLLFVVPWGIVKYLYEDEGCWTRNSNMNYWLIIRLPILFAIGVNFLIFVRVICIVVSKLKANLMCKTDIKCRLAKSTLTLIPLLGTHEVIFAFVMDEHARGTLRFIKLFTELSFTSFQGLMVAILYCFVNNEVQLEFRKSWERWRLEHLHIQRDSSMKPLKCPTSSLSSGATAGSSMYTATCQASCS

As for `CC[C@H](C)[C@H](NC(=O)[C@H](CCCN)NC(=O)[C@H](CC(=O)O)NC(=O)[C@H](CC(C)C)NC(=O)[C@](C)(CC(C)C)NC(=O)[C@@H](NC(=O)C(C)(C)NC(=O)[C@H](Cc1ccncc1)NC(=O)[C@H](CC(=O)O)NC(=O)[C@H](CO)NC(=O)[C@@H](NC(=O)[C@](C)(Cc1ccccc1F)NC(=O)[C@@H](NC(=O)CNC(=O)[C@H](CCC(=O)O)NC(=O)C(C)(C)NC(=O)[C@@H](N)Cc1ccc(O)cc1)[C@@H](C)O)[C@@H](C)O)[C@@H](C)CC)C(=O)N[C@@H](C)C(=O)N[C@@H](CCC(N)=O)C(=O)NC(C)(C)C(=O)N[C@@H](CCCN)C(=O)N[C@@H](Cc1ccccc1)C(=O)N[C@H](C(=O)N[C@@H](CCCCNC(=O)COCCOCCNC(=O)COCCOCCNC(=O)CC[C@H](NC(=O)CCCCCCCCCCCCC(=O)O)C(=O)O)C(=O)N[C@@](C)(Cc1ccc(O)cc1)C(=O)N[C@@H](CC(C)C)C(=O)N[C@H](C(=O)N[C@@H](CCCCNC(=O)COCCOCCNC(=O)COCCOCCNC(=O)CC[C@H](NC(=O)CCCCCCCCCCCCC(=O)O)C(=O)O)C(=O)NCC(=O)NCC(=O)N1CCC[C@H]1C(=O)N[C@@H](CO)C(=O)N[C@@H](CO)C(=O)NCC(=O)N[C@@H](C)C(=O)N1CCC[C@H]1C(=O)N1CCC[C@H]1C(=O)N1CCC[C@H]1C(=O)N[C@@H](CO)C(N)=O)[C@@H](C)CC)[C@@H](C)CC` [Example 315] (H-Y[Aib]EGT[αMePhe(2-F)]TSD[4Pal][Aib]I[αMeL]LD[Orn]IAQ[Aib][Orn]FIK([AEEA-AEEA-γGlu-C14 diacid])[αMeY]LIK([AEEA-AEEA-γGlu-C14 diacid])GGPSSGAPPPS-NH2), the EC50 was greater than 9950 nM on hGCGR (0.1% bovine casein and 1.0% human serum albumin, geometric mean, read-out: hGCGR EC50, nM (SEM, n)); greater than 9950 nM at hGCGR (cAMP, 0.1% bovine casein (no human serum albumin), geometric mean, read-out: hGCGR EC50, nM (SEM, n)); 0.376 nM at hGLP-1R (37° C., read-out: hGLP-1R EC50, nM (SEM, n)); 0.0245 nM on hGIPR (37° C., read-out: hGIPR EC50, nM (SEM, n)). Besides, the Emax on hGLP-1R (HEK293, 0.1% bovine casein and 1.0% human serum albumin, 37° C., read-out: hGLP-1R Emax, % ± SEM) was determined as 93.5%; on hGLP-1R (HEK293, cAMP, 37° C., 0.1% bovine casein, arithmetic mean, read-out: hGLP-1R Emax, % ± SEM) it was 98.9%; on hGIPR (HEK293, 0.1% bovine casein and 1.0% human serum albumin, 37° C., read-out: hGIPR Emax, % ± SEM) it was 89.2%.

For `CC[C@H](C)[C@H](NC(=O)[C@H](CCCN)NC(=O)[C@H](CC(=O)O)NC(=O)[C@H](CC(C)C)NC(=O)[C@](C)(CC(C)C)NC(=O)[C@@H](NC(=O)[C@H](CO)NC(=O)[C@H](Cc1ccncc1)NC(=O)[C@H](CC(=O)O)NC(=O)[C@H](CO)NC(=O)[C@@H](NC(=O)[C@](C)(Cc1ccccc1F)NC(=O)[C@@H](NC(=O)CNC(=O)[C@H](CCC(=O)O)NC(=O)C(C)(C)NC(=O)[C@@H](N)Cc1ccc(O)cc1)[C@@H](C)O)[C@@H](C)O)[C@@H](C)CC)C(=O)N[C@@H](C)C(=O)N[C@@H](CCC(N)=O)C(=O)NC(C)(C)C(=O)N[C@@H](CCC(=O)O)C(=O)N[C@@H](Cc1ccccc1)C(=O)N[C@H](C(=O)N[C@@H](CCCCNC(=O)COCCOCCNC(=O)COCCOCCNC(=O)CC[C@H](NC(=O)CCCCCCCCCOc1ccc(C(=O)O)cc1)C(=O)O)C(=O)N[C@@](C)(Cc1ccc(O)cc1)C(=O)N[C@@H](CC(C)C)C(=O)N[C@H](C(=O)N[C@@H](CCCCNC(=O)COCCOCCNC(=O)COCCOCCNC(=O)CC[C@H](NC(=O)CCCCCCCCCOc1ccc(C(=O)O)cc1)C(=O)O)C(=O)NCC(=O)NCC(=O)N1CCC[C@H]1C(=O)N[C@@H](CO)C(=O)N[C@@H](CO)C(=O)NCC(=O)N[C@@H](C)C(=O)N1CCC[C@H]1C(=O)N1CCC[C@H]1C(=O)N1CCC[C@H]1C(=O)N[C@@H](CO)C(N)=O)[C@@H](C)CC)[C@@H](C)CC` [Example 274], the EC50 at hGCGR (setting [1]) was greater than 9950 nM; at hGCGR (setting [2]), greater than 9950 nM; on hGLP-1R (setting [5]), 0.406 nM; at hGIPR (setting [6]), 0.0226 nM. Also, the Emax at hGLP-1R (setting [3]) was 121%; at hGLP-1R (setting [4]), 114%; on hGIPR (HEK293, read-out: hGIPR Emax, % ± SEM, 0.1% bovine casein and 1.0% human serum albumin, 37° C.), 93.5%.

Take `CC[C@H](C)[C@H](NC(=O)[C@H](CC(C)C)NC(=O)[C@](C)(Cc1ccc(O)cc1)NC(=O)[C@@H](CCC(=O)O)NC(=O)[C@@H](NC(=O)[C@H](Cc1ccccc1)NC(=O)[C@H](CCCCNC(=O)COCCOCCNC(=O)COCCOCCNC(=O)CC[C@H](NC(=O)CCCCCCCCCOc1ccc(C(=O)O)cc1)C(=O)O)NC(=O)C(C)(C)NC(=O)[C@H](CCC(N)=O)NC(=O)[C@H](C)NC(=O)[C@H](CCCCNC(=O)COCCOCCNC(=O)COCCOCCNC(=O)CC[C@H](NC(=O)CCCCCCCCCOc1ccc(C(=O)O)cc1)C(=O)O)NC(=O)[C@H](CCCN)NC(=O)[C@H](CC(=O)O)NC(=O)[C@H](CC(C)C)NC(=O)[C@](C)(CC(C)C)NC(=O)[C@@H](NC(=O)[C@H](CO)NC(=O)[C@H](Cc1ccc(OC)cc1)NC(=O)[C@H](CC(=O)O)NC(=O)[C@H](CO)NC(=O)[C@@H](NC(=O)[C@](C)(Cc1ccccc1F)NC(=O)[C@@H](NC(=O)CNC(=O)[C@H](CCC(=O)O)NC(=O)C(C)(C)NC(=O)[C@@H](N)Cc1ccc(O)cc1)[C@@H](C)O)[C@@H](C)O)[C@@H](C)CC)[C@@H](C)CC)C(=O)N[C@@H](CCC(=O)O)C(=O)NCC(=O)NCC(=O)N1CCC[C@H]1C(=O)N[C@@H](CO)C(=O)N[C@@H](CO)C(=O)NCC(=O)N[C@@H](C)C(=O)N1CCC[C@H]1C(=O)N1CCC[C@H]1C(=O)N1CCC[C@H]1C(=O)N[C@@H](CO)C(N)=O` [Example 277] (H-Y[Aib]EGT[αMePhe(2-F)]TSDY(Me)SI[αMeL]LD[Orn]K([AEEA-AEEA-γGlu-Decanoyl(10-(4-HOOC-PhO))])AQ[Aib]K([AEEA-AEEA-γGlu-Decanoyl(10-(4-HOOC-PhO))])FI[dE][αMeY]LIEGGPSSGAPPPS-NH2): the EC50 on hGCGR (setting [1]) was greater than 9950 nM; at hGCGR (setting [2]) it was greater than 9950 nM; at hGLP-1R (setting [5]), 0.225 nM; on hGIPR (setting [6]), 0.0176 nM. Moreover, the Emax was 93.1% on hGLP-1R (setting [3]) and 97.1% on hGLP-1R (setting [4]).

`CC[C@H](C)[C@H](NC(=O)[C@H](CCCN)NC(=O)[C@H](CC(=O)O)NC(=O)[C@H](CC(C)C)NC(=O)[C@](C)(CC(C)C)NC(=O)[C@@H](NC(=O)C(C)(C)NC(=O)[C@H](Cc1ccc(O)cc1)NC(=O)[C@H](CC(=O)O)NC(=O)[C@H](CO)NC(=O)[C@@H](NC(=O)[C@](C)(Cc1ccccc1F)NC(=O)[C@@H](NC(=O)CNC(=O)[C@H](CCC(=O)O)NC(=O)C(C)(C)NC(=O)[C@@H](N)Cc1ccc(O)cc1)[C@@H](C)O)[C@@H](C)O)[C@@H](C)CC)C(=O)N[C@@H](C)C(=O)N[C@@H](CCC(N)=O)C(=O)NC(C)(C)C(=O)N[C@@H](CCCCNC(=O)COCCOCCNC(=O)CC[C@H](NC(=O)CCCCCCCCCOc1ccc(C(=O)O)cc1)C(=O)O)C(=O)N[C@@H](Cc1ccccc1)C(=O)N[C@H](C(=O)N[C@H](CCC(=O)O)C(=O)N[C@@](C)(Cc1ccc(O)cc1)C(=O)N[C@@H](CC(C)C)C(=O)N[C@H](C(=O)N[C@@H](CCCCNC(=O)COCCOCCNC(=O)CC[C@H](NC(=O)CCCCCCCCCOc1ccc(C(=O)O)cc1)C(=O)O)C(=O)NCC(=O)NCC(=O)N1CCC[C@H]1C(=O)N[C@@H](CO)C(=O)N[C@@H](CO)C(=O)NCC(=O)N[C@@H](C)C(=O)N1CCC[C@H]1C(=O)N1CCC[C@H]1C(=O)N1CCC[C@H]1C(=O)N[C@@H](CO)C(N)=O)[C@@H](C)CC)[C@@H](C)CC` [Example 376] (H-Y[Aib]EGT[αMePhe(2-F)]TSDY[Aib]I[αMeL]LD[Orn]IAQ[Aib]K([AEEA-γGlu-Decanoyl(10-(4-HOOC-PhO))])FI[dE][αMeY]LIK([AEEA-γGlu-Decanoyl(10-(4-HOOC-PhO))])GGPSSGAPPPS-NH2): the EC50 is greater than 9950 nM at hGCGR (setting [2]); greater than 9950 nM on hGCGR (hGCGR EC50, nM (SEM, n), cAMP, 0.1% bovine casein and 1.0% human serum albumin, geometric mean (SEM, n)); 0.539 nM on hGLP-1R (setting [5]); 0.0281 nM at hGIPR (setting [6]). Further, the Emax on hGLP-1R (HEK293, read-out: hGLP-1R Emax, % ± SEM, cAMP, 37° C., 0.1% bovine casein and 1.0% human serum albumin) is 121%; on hGIPR (HEK293, read-out: hGIPR Emax, % ± SEM, cAMP, 37° C., 0.1% bovine casein and 1.0% human serum albumin) it was 88.3%.

The values are drawn from patent US20230265151A1, “GIP/GLP1 CO-AGONIST COMPOUNDS” (priority 2020, published 2023).
